Laboratory results taken from ChEMBL document CHEMBL1134426, “Derivatives of 17-(2-methylallyl)-substituted noroxymorphone: variation of the delta address and its effects on affinity and selectivity for the delta opioid receptor” (Bioorg Med Chem Lett, 2001).

Assays:
[1] = biological target: Kappa-type opioid receptor (Homo sapiens, UniProt P41145); experiment: Displacement of [3H]U-69593 from Opioid receptor kappa 1
[2] = biological target: Delta-type opioid receptor (Homo sapiens, UniProt P41143); experiment: Displacement of [3H]DADLE from Opioid receptor delta 1
Delta-type opioid receptor, sequence (P41143 whole entry): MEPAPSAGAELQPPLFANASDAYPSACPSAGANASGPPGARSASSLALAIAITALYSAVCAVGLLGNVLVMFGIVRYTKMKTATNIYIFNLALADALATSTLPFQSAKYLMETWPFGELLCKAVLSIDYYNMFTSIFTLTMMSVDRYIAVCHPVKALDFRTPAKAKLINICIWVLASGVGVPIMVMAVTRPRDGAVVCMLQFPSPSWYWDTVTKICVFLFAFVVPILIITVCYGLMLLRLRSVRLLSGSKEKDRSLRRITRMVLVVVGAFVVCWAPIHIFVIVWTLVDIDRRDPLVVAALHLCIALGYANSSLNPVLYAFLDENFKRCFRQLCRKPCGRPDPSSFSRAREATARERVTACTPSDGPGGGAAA

[3] = biological target: Mu-type opioid receptor (Homo sapiens, UniProt P35372); experiment: Displacement of [3H]DAMGO from Opioid receptor mu 1
Mu-type opioid receptor, sequence (P35372 whole entry): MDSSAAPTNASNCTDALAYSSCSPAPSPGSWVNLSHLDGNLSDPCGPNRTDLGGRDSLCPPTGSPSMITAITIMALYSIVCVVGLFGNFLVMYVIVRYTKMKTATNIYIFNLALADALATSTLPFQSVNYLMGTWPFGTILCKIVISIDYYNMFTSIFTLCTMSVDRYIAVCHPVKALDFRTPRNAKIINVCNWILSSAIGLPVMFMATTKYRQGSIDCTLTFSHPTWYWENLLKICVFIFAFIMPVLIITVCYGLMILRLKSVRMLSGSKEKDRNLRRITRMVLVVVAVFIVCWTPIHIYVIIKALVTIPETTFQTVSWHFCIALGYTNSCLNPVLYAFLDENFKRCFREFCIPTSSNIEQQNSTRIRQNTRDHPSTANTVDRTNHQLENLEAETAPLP

[4] = biological target: Opioid receptors; mu & delta (Homo sapiens) (UniProt P41143+P35372); experiment: Selectivity ratio for mu and delta opioid receptor binding; format: protein assay
Opioid receptors; mu & delta (Homo sapiens), sequence (P35372 whole entry, looked up): as the sequence (P35372 whole entry) above
Opioid receptors; mu & delta (Homo sapiens), sequence (P41143 whole entry, looked up): as the sequence (P41143 whole entry) above

[5] = biological target: Opioid receptors; delta & kappa (Homo sapiens) (UniProt P41145+P41143); experiment: Selectivity ratio for kappa and delta opioid receptor binding; format: protein assay
Opioid receptors; delta & kappa (Homo sapiens), sequence (P41143 whole entry, looked up): as the sequence (P41143 whole entry) above
Opioid receptors; delta & kappa (Homo sapiens), sequence (P41145 whole entry, looked up): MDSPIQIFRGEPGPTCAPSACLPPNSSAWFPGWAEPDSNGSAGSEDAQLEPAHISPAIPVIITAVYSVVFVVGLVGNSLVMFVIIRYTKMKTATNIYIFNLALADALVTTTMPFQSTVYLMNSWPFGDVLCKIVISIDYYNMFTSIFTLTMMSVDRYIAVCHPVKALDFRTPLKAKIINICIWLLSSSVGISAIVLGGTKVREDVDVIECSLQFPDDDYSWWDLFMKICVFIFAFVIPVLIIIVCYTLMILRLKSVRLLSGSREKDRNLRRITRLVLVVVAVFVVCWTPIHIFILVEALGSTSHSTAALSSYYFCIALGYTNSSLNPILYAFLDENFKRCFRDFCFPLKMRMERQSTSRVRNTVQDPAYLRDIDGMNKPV

Kappa-type opioid receptor, sequence (P41145 whole entry): as the sequence (P41145 whole entry, looked up) above

Row | SMILES | Ki [1] [nM] | Ki [2] [nM] | Ki [3] [nM] | Selectivity ratio [4] | Selectivity ratio [5]
1 | C=C(C)CN1CCC23c4c5ccc(OC)c4O[C@H]2C(=O)C2(Cc4ccccc4C2)C[C@@]3(O)C1C5 (stereo partly drawn) | > 7000 | > 7200 | > 6000 |  | 
2 | C=C(C)CN1CCC23c4c5ccc(O)c4O[C@H]2C(=O)C2(Cc4ccccc4C2)C[C@@]3(O)C1C5 (stereo partly drawn) | 1000 | 41 | 2000 | 49 | 24
3 | C=C(C)CN1CCC23c4c5ccc(OC)c4O[C@H]2c2[nH]ncc2C[C@@]3(O)C1C5 (stereo partly drawn) | 3100 | 2400 | > 6000 |  | 
4 | C=C(C)CN1CCC23c4c5ccc(O)c4O[C@H]2c2ncc(-c4ccc(Cl)cc4)cc2C[C@@]3(O)C1C5 (stereo partly drawn) | 300 | 16 | > 6000 | > 380 | 19
5 | C=C(C)CN1CCC23c4c5ccc(OC)c4O[C@H]2c2n[nH]cc2C[C@@]3(O)C1C5 (stereo partly drawn) |  |  |  | > 2 | 1
6 | C=C(C)CN1CCC23c4c5ccc(OC)c4O[C@H]2c2ncc(-c4ccc(Cl)cc4)cc2C[C@@]3(O)C1C5 (stereo partly drawn) | 3200 | 260 | > 6000 | 23 | 12
7 | C=C(C)CN1CCC23c4c5ccc(O)c4O[C@H]2c2oc4ccccc4c2C[C@@]3(O)C1C5 (stereo partly drawn) | 580 | 8.2 | 1300 | 160 | 71
8 | C=C(C)CN1CCC23c4c5ccc(O)c4O[C@H]2c2[nH]c4ccccc4c2C[C@@]3(O)C1C5 (stereo partly drawn) | 3800 | 4.7 | 7900 | 1700 | 810
9 | C=C(C)CN1CCC23c4c5ccc(OC)c4O[C@H]2C(=O)/C(=C/c2ccccc2)C[C@@]3(O)C1C5 (stereo partly drawn) | > 7000 | 3400 | > 6000 | > 1 | > 2
10 | C=C(C)CN1CCC23c4c5ccc(O)c4O[C@H]2c2n[nH]cc2C[C@@]3(O)C1C5 (stereo partly drawn) |  |  |  | 4 | 1
11 | C=C(C)CN1CCC23c4c5ccc(OC)c4O[C@H]2c2oc4ccccc4c2C[C@@]3(O)C1C5 (stereo partly drawn) | > 10000 | 44 | > 6000 | 140 | 230
12 | C=C(C)CN1CCC23c4c5ccc(O)c4O[C@H]2c2[nH]ncc2C[C@@]3(O)C1C5 (stereo partly drawn) | 38 | 40 | 140 |  | 
13 | C=C(C)CN1CCC23c4c5ccc(OC)c4O[C@H]2c2[nH]c4ccccc4c2C[C@@]3(O)C1C5 (stereo partly drawn) | > 14000 | 500 | > 6000 | > 12 | > 28
14 | C=C(C)CN1CCC23c4c5ccc(O)c4O[C@H]2C(=O)/C(=C/c2ccccc2)C[C@@]3(O)C1C5 (stereo partly drawn) | 4500 | 210 | 4500 | 21 | 21
